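Protocol summary: plate cells (96-well), add compound at 5 concentrations, incubate 48 h, interpolate endpoints linearly. The concentration for 50% growth inhibition is given as GI50. TGI is the concentration that stops growth completely.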
What was measured:
Test in all cases: NCI anticancer screen, dose series, 48 h
[1] = tested on: 786-0 renal
[2] = tested on: A498 renal
[3] = tested on: A549 NSCLC
[4] = tested on: ACHN renal
[5] = tested on: BT-549 breast
[6] = tested on: CAKI-1 renal
[7] = tested on: CCRF-CEM leukemia
[8] = tested on: COLO 205 colon
[9] = tested on: DU-145 prostate
[10] = tested on: EKVX NSCLC
[11] = tested on: HCC-2998 colon
[12] = tested on: HCT-116 colon
[13] = tested on: HCT-15 colon
[14] = tested on: HL-60(TB) leukemia
[15] = tested on: HOP-62 NSCLC
[16] = tested on: HOP-92 NSCLC
[17] = tested on: HS 578T breast
[18] = tested on: HT29 colon
[19] = tested on: IGROV1 ovarian
[20] = tested on: K-562 leukemia
[21] = tested on: KM12 colon
[22] = tested on: LOX IMVI melanoma
[23] = tested on: M14 melanoma
[24] = tested on: MALME-3M melanoma
[25] = tested on: MCF7 breast
[26] = tested on: MDA-MB-231 breast
[27] = tested on: MDA-MB-435
[28] = tested on: MOLT-4 leukemia
[29] = tested on: NCI-H226 lung
[30] = tested on: NCI-H23 lung
[31] = tested on: NCI-H460 lung
[32] = tested on: NCI-H522 lung
[33] = tested on: NCI/ADR-RES ovarian
[34] = tested on: OVCAR-3 ovarian
[35] = tested on: OVCAR-4 ovarian
[36] = tested on: OVCAR-5 ovarian
[37] = tested on: OVCAR-8 ovarian
[38] = tested on: PC-3 prostate
[39] = tested on: RXF 393 renal
[40] = tested on: SF-268 CNS
[41] = tested on: SF-295 CNS
[42] = tested on: SF-539 CNS
[43] = tested on: SK-MEL-2 melanoma
[44] = tested on: SK-MEL-28 melanoma
[45] = tested on: SK-MEL-5 melanoma
[46] = tested on: SK-OV-3 ovarian
[47] = tested on: SN12C renal
[48] = tested on: SNB-19 CNS
[49] = tested on: SNB-75 CNS
[50] = tested on: SR leukemia
[51] = tested on: SW-620 colon
[52] = tested on: T-47D breast
[53] = tested on: TK-10 renal
[54] = tested on: U251 CNS
[55] = tested on: UACC-257 melanoma
[56] = tested on: UACC-62 melanoma
[57] = tested on: UO-31 renal
[58] = tested on: RPMI-8226 leukemia

`CCN1Cc2c(ccc(F)c2C#N)O[C@@H](C)CNC(=O)c2c(N)nn3ccc1nc23` showed a GI50 [1] of 2.85 µM, a TGI [1] of 15.9 µM and a GI50 [2] of 0.712 µM. It also gave a TGI [2] of 3.9 µM, a GI50 [3] of 2.85 µM and a TGI [3] of 24 µM. For the same compound, the GI50 [4] was 0.676 µM, the TGI [4] was 6.86 µM and the GI50 [5] was 5.98 µM. It also gave a TGI [5] of 18.5 µM, a GI50 [6] of 0.399 µM and a TGI [6] of 1.98 µM. The GI50 [7] was 3.74 µM, the TGI [7] was greater than 100 µM and the GI50 [8] was 0.815 µM. The TGI [8] was 3.74 µM, the GI50 [9] was 2.09 µM and the TGI [9] was 15.7 µM. For the same compound, the GI50 [10] was 5.03 µM, the TGI [10] was 31.4 µM and the GI50 [11] was 5.57 µM. For the same compound, the TGI [11] was 20.7 µM, the GI50 [12] was 1.25 µM and the TGI [12] was 11.5 µM. The GI50 [13] was 2.46 µM, the TGI [13] was 14.9 µM and the GI50 [14] was 4.37 µM. The TGI [14] was 40 µM, the GI50 [15] was 2.76 µM and the TGI [15] was 20.1 µM. It also gave a GI50 [16] of 0.479 µM, a TGI [16] of 3.65 µM and a GI50 [17] of 0.652 µM. The TGI [17] was 4.71 µM, the GI50 [18] was 0.98 µM and the TGI [18] was 46.7 µM. It also gave a GI50 [19] of 0.682 µM, a TGI [19] of 13 µM and a GI50 [20] of 0.175 µM. It also gave a TGI [20] greater than 100 µM, a TGI [21] of 69.7 µM and a GI50 [22] of 1.13 µM. It also gave a TGI [22] of 6.9 µM, a GI50 [23] of 0.678 µM and a TGI [23] of 11.1 µM. The GI50 [24] was 1.15 µM, the TGI [24] was 7.4 µM and the GI50 [25] was 3.23 µM. For the same compound, the TGI [25] was 31.1 µM, the GI50 [26] was 1.32 µM and the TGI [26] was 4.21 µM. The GI50 [27] was 2.74 µM, the TGI [27] was 20.2 µM and the GI50 [28] was 2.75 µM. The TGI [28] was 69.2 µM, the GI50 [29] was 3.79 µM and the TGI [29] was 18.6 µM. It also gave a GI50 [30] of 2.3 µM, a TGI [30] of 29.4 µM and a GI50 [31] of 2.42 µM. For the same compound, the TGI [31] was 28.9 µM, the GI50 [32] was 5.04 µM and the TGI [32] was 41.3 µM. The GI50 [33] was 6.03 µM, the TGI [33] was 56.3 µM and the GI50 [34] was 3.37 µM. It also gave a TGI [34] of 18.1 µM, a GI50 [35] of 8.44 µM and a TGI [35] greater than 100 µM. The GI50 [36] was 2.87 µM, the TGI [36] was 19.8 µM and the GI50 [37] was 4.33 µM. For the same compound, the TGI [37] was greater than 100 µM, the GI50 [38] was 1.64 µM and the TGI [38] was 26.6 µM. The GI50 [39] was 0.46 µM, the TGI [39] was 3.67 µM and the GI50 [40] was 3.26 µM. The TGI [40] was 20.3 µM, the GI50 [41] was 0.0758 µM and the TGI [41] was 10.3 µM. It also gave a GI50 [42] of 3.46 µM, a TGI [42] of 15.8 µM and a GI50 [43] of 1.72 µM. It also gave a TGI [43] of 5.22 µM, a GI50 [44] of 1.82 µM and a TGI [44] of 11.5 µM. For the same compound, the GI50 [45] was 3.46 µM, the TGI [45] was 15.2 µM and the GI50 [46] was 1.66 µM. It also gave a TGI [46] of 15.3 µM, a GI50 [47] of 1.35 µM and a TGI [47] of 18.5 µM. It also gave a GI50 [48] of 8.93 µM, a TGI [48] of 39.3 µM and a GI50 [49] of 0.465 µM. It also gave a TGI [49] of 3.82 µM, a GI50 [50] of 0.626 µM and a TGI [50] greater than 100 µM. For the same compound, the GI50 [51] was 3.87 µM, the TGI [51] was 80.2 µM and the GI50 [52] was 2.78 µM. For the same compound, the TGI [52] was 56.3 µM, the GI50 [53] was 1.29 µM and the TGI [53] was 11.7 µM. It also gave a GI50 [54] of 5.34 µM, a TGI [54] of 32.4 µM and a GI50 [55] of 2.63 µM. It also gave a TGI [55] of 16.7 µM, a GI50 [56] of 0.632 µM and a TGI [56] of 3.65 µM. The GI50 [57] was 1.14 µM and the TGI [57] was 6.53 µM.

Work on `COC(=O)C1=C(C(=O)OC)SC(=C(Cl)C(=S)Nc2ccccc2O)S1` yielded a GI50 [1] of 0.686 µM, a TGI [1] of 10.1 µM and a GI50 [3] of 21.2 µM. For the same compound, the TGI [3] was greater than 50 µM, the GI50 [4] was 16.3 µM and the TGI [4] was greater than 50 µM. The GI50 [5] was 2.34 µM, the TGI [5] was 35.5 µM and the GI50 [6] was 9.63 µM. For the same compound, the TGI [6] was 21.8 µM, the GI50 [7] was greater than 50 µM and the TGI [7] was greater than 50 µM. The GI50 [8] was 16.2 µM, the TGI [8] was greater than 50 µM and the GI50 [9] was 15.7 µM. For the same compound, the TGI [9] was greater than 50 µM, the GI50 [12] was 0.143 µM and the TGI [12] was greater than 50 µM. The GI50 [13] was 17.7 µM, the TGI [13] was greater than 50 µM and the GI50 [14] was 16.6 µM. The TGI [14] was greater than 50 µM, the GI50 [15] was 0.354 µM and the TGI [15] was 11.2 µM. For the same compound, the GI50 [16] was 40 µM, the TGI [16] was greater than 50 µM and the GI50 [17] was 31.6 µM. For the same compound, the TGI [17] was greater than 50 µM, the GI50 [18] was 30.2 µM and the TGI [18] was greater than 50 µM. It also gave a GI50 [20] of 22.6 µM, a TGI [20] greater than 50 µM and a GI50 [21] of 0.132 µM. The TGI [21] was greater than 50 µM, the GI50 [22] was 12.9 µM and the TGI [22] was 24.5 µM. It also gave a GI50 [23] of 0.352 µM, a TGI [23] of 12.7 µM and a GI50 [24] of 21.7 µM. It also gave a TGI [24] greater than 50 µM, a GI50 [25] of 8.57 µM and a TGI [25] of 25.7 µM. For the same compound, the GI50 [26] was 10.6 µM, the TGI [26] was 25.9 µM and the GI50 [27] was 3.82 µM. For the same compound, the TGI [27] was 17 µM, the GI50 [28] was 46.8 µM and the TGI [28] was greater than 50 µM. The GI50 [29] was 13.9 µM, the TGI [29] was 39.3 µM and the GI50 [30] was 6.67 µM. For the same compound, the TGI [30] was 20.1 µM, the GI50 [31] was 11.5 µM and the TGI [31] was greater than 50 µM. It also gave a GI50 [32] of 10.3 µM, a TGI [32] of 23.3 µM and a GI50 [33] of 14.1 µM. The TGI [33] was 35.1 µM, the GI50 [34] was 7.41 µM and the TGI [34] was 22.8 µM. For the same compound, the GI50 [35] was 35.5 µM, the TGI [35] was greater than 50 µM and the GI50 [36] was 11.6 µM. For the same compound, the TGI [36] was 31.5 µM, the GI50 [37] was 25.3 µM and the TGI [37] was greater than 50 µM. The GI50 [38] was 22.2 µM, the TGI [38] was greater than 50 µM and the GI50 [58] was 33 µM. It also gave a TGI [58] greater than 50 µM, a GI50 [39] of 11.7 µM and a TGI [39] of 29.5 µM. The GI50 [40] was 10.2 µM, the TGI [40] was 23.6 µM and the GI50 [41] was 6.57 µM. It also gave a TGI [41] of 24.9 µM, a GI50 [42] of 15.9 µM and a TGI [42] of 39 µM. The GI50 [43] was 10.3 µM, the TGI [43] was 22.2 µM and the GI50 [44] was greater than 50 µM. The TGI [44] was greater than 50 µM, the GI50 [45] was 19.1 µM and the TGI [45] was greater than 50 µM. The GI50 [46] was 20 µM, the TGI [46] was greater than 50 µM and the GI50 [47] was 9.69 µM. For the same compound, the TGI [47] was 19.7 µM, the GI50 [48] was 18 µM and the TGI [48] was greater than 50 µM. It also gave a GI50 [49] of 33.7 µM, a TGI [49] greater than 50 µM and a GI50 [50] of 26.1 µM. The TGI [50] was greater than 50 µM, the GI50 [51] was 26.4 µM and the TGI [51] was greater than 50 µM. It also gave a GI50 [52] of 17 µM, a TGI [52] greater than 50 µM and a GI50 [53] of 7.05 µM. It also gave a TGI [53] of 23.9 µM, a GI50 [54] of 12.2 µM and a TGI [54] of 30.5 µM. It also gave a GI50 [55] of 12.4 µM, a TGI [55] of 26.3 µM and a GI50 [56] of 8.84 µM. It also gave a TGI [56] of 18.6 µM, a GI50 [57] of 14.4 µM and a TGI [57] of 39.2 µM.

From PubChem BioAssay (NCI)
